Experiment [1] concerns craniotomy defect of the calvaria. The experiment in a line: Repair of calvarial bone defect in mice. To be noted: prom-1 #237 added to composition containing FDBA. The experiment is classed as in vivo, C57/BI/6 wild-type mice. Here is the method:
(§1) One of the most common models used to test bone repair methods and compositions is defects in the calvarial bone in a model organism. Mice, rats, and rabbits are all frequently used in this model of flat bone repair. The model animals used in this investigation were 10 week-old, skeletally mature, male C57/BI/6 wild-type mice. Mice are anesthetized by intramuscular injection with ketamine (7.5 mg/100 g body weight and xylazine (5-10 mg/kg body weight). The calvaria skin is shaved with an electric device and then scrubbed with a povidone-iodine scrub (e.g., Betadine®) and 70% alcohol, taking care to scrub from the center of the site toward the periphery. The site is then rinsed with 70% alcohol. At least three alternating preparations of germicidal scrub and rinse are performed. Finally, the area is draped with sterile drapes, which not only help to prevent contaminants from entering the surgical field, but also provide a sterile area on which to lay sterile instruments during surgery.
Full-thickness flaps are utilized in order to gain access to the calvaria. […] After the surgery, the animals are monitored until fully alert and monitoring continues thereafter for any issues related to discomfort, pain or infection. […] Medication to control pain is also delivered right after surgery and if detected subsequently. […] The animal is monitored continuously until it regains sternal recumbence and is capable of holding its head up, and is returned to its regular cage only when it is alert, mobile and breathing normally. […]
Post-surgical observations include a minimum daily observation, including weekends and holidays, of the condition of the animal and the surgical site. […] Pain/distress is monitored by monitoring the physiological parameters and behavioral responses although distress is more difficult to define and identify than pain. […] The animals are evaluated at day 56 after the creation of the defect to determine the extent of repair and regeneration.

In another experiment the test system is segmental femur defect. The experiment can be described thus: Repair of long bone (segmental femur) defect in mice. The experiment is classed as in vivo, C57/BI/6 wild-type mice. The procedure:
as §1, with “The” for “One of the most common models used to test bone repair methods and compositions is defects in the calvarial bone in a model organism. Mice, rats, and rabbits are all frequently used in this model of flat bone repair. The”, “The” for “The calvaria”
Full-thickness flaps are utilized in order to gain access to the femur. A roughly 5 mm length segmental femur defect is created on the C57/BI/6 mice. Once the defect has been created all mice received cell-free grafts. Control mice received no additional treatment, while the second group of mice received treatment with prom-1 #237. Soft tissues are closed with sutures. After the surgery, the animals are monitored until fully alert and monitoring continues thereafter for any issues related to discomfort, pain or infection. […] Medication to control pain is also delivered right after surgery and if detected subsequently. […] The animal is monitored continuously until it regains sternal recumbence and is capable of holding its head up, and is returned to its regular cage only when it is alert, mobile and breathing normally. […]
Post-surgical observations include a minimum daily observation, including weekends and holidays, of the condition of the animal and the surgical site. […] Pain/distress is monitored by monitoring the physiological parameters and behavioral responses although distress is more difficult to define and identify than pain. […] The animals are evaluated at day 14 after the creation of the defect to determine the extent of repair and regeneration.

Setting [2] is: femur defect with cell-free graft, day 14.

Consider “DRVQRQTTTVVA (SEQ ID NO: 35) [prom-1 #237]”, for which the time to recovery entry in experiment [1] is recorded as “significantly reduced”. Moreover, in experiment [1] (day 56), the “ability of existing mouse cells to colonize the FDBA scaffold material and repair a large defect in the calvarial flat bone” value is on record as “greatly increases”; the “total extent of recovery” value is given as “markedly improved”. For the same sequence, in the experiment on segmental femur defect (setting [2]), the “ability of existing mouse cells to colonize the scaffold material and repair a large defect in the long bone” value is “greatly increased”; the “total extent of recovery” value is “markedly improved”. Moreover, the “new bone growth / callus formation at the defect (FIG. 1B)” value with segmental femur defect (roughly 5 mm segmental femur defect, given in addition to cell-free graft, evaluated at day 14, versus graft only) is “significant callus formation”.

The values above are taken from patent US20120253470A1, “COMPOSITIONS FOR BONE TISSUE REPAIR AND USES THEREOF” (PRESIDENT AND FELLOWS OF HARVARD COLLEGE, priority 2011, published 2012).
